Laboratory results from US4362743A, “Antibacterial monic acid esters” (Beecham Group Limited, priority 1980, dated 1982).
Converted amounts (≈) assume the structure as drawn. Where two headings read alike, the source gives them in different places.

Columns and labels:
[1] = tested on: M. suipneumoniae NB12; experiment: Anti-mycoplasmal activity in vitro MIC; assay type: cell-based; settings: Mesomycoplasma hyopneumoniae
[2] = tested on: M. suipneumoniae JF 435; experiment: Anti-mycoplasmal activity in vitro MIC; assay type: cell-based; settings: Mesomycoplasma hyopneumoniae, JF435, 144 h
[3] = tested on: M. suipneumoniae HK (2); experiment: Anti-mycoplasmal activity in vitro MIC; assay type: cell-based; settings: Mesomycoplasma hyopneumoniae, 144 h
[4] = tested on: M. suipneumoniae Str. 11; experiment: Anti-mycoplasmal activity in vitro MIC; assay type: cell-based; settings: Mesomycoplasma hyopneumoniae
[5] = tested on: M. suipneumoniae J2206/183b; experiment: Anti-mycoplasmal activity in vitro MIC; assay type: cell-based; settings: Mesomycoplasma hyopneumoniae, 144 h
[6] = tested on: M. suipneumoniae PW/C/210; experiment: Anti-mycoplasmal activity in vitro MIC; assay type: cell-based; settings: Mesomycoplasma hyopneumoniae, 144 h
[7] = tested on: M. suipneumoniae LABER; experiment: Anti-mycoplasmal activity in vitro MIC; assay type: cell-based; settings: Mesomycoplasma hyopneumoniae, 144 h
[8] = tested on: M. suipneumoniae UCD 1; experiment: Anti-mycoplasmal activity in vitro MIC; assay type: cell-based; settings: Mesomycoplasma hyopneumoniae, UCD1, 144 h
[9] = tested on: M. suipneumoniae ATCC 25095; experiment: Anti-mycoplasmal activity in vitro MIC; assay type: cell-based; settings: Mesomycoplasma hyopneumoniae, ATCC25095, 144 h
[10] = tested on: M. suipneumoniae NCTC 10110; experiment: Anti-mycoplasmal activity in vitro MIC; assay type: cell-based; settings: Mesomycoplasma hyopneumoniae, NCTC10110, 144 h
[11] = tested on: M. hyorhinis ATCC 23234; experiment: Anti-mycoplasmal activity in vitro MIC; assay type: cell-based; settings: Mesomycoplasma hyorhinis, ATCC23234, 144 h
[12] = tested on: M. hyorhinis ATCC 25021; experiment: Anti-mycoplasmal activity in vitro MIC; assay type: cell-based; settings: Mesomycoplasma hyorhinis, ATCC25021, 144 h
[13] = tested on: M. hyosynoviae ATCC 25591; experiment: Anti-mycoplasmal activity in vitro MIC; assay type: cell-based; settings: 144 h
[14] = tested on: M. bovis NCTC 10131; experiment: microbe, parasite or virus in culture; assay type: cell-based; settings: NCTC10131, 144 h
[15] = tested on: M. bovigenitalium ATCC 14173; experiment: Anti-mycoplasmal activity in vitro MIC; assay type: cell-based; settings: 144 h
[16] = tested on: M. dispar NCTC 10125; experiment: Anti-mycoplasmal activity in vitro MIC; assay type: cell-based; settings: 144 h
[17] = tested on: M. gallisepticum S6; experiment: Anti-mycoplasmal activity in vitro MIC; assay type: cell-based; settings: Mycoplasmoides gallisepticum
[18] = tested on: M. pneumoniae ATCC 15492; experiment: Anti-mycoplasmal activity in vitro MIC; assay type: cell-based; settings: Mycoplasmoides pneumoniae, ATCC15492, 144 h
[19] = tested on: Corneybacterium xerosis 9755; experiment: Human bacteria MIC; assay type: cell-based; settings: Corneybacterium xerosis 9755; nutrient agar, 5% chocolated horse blood, 18 hours 37° C.; read-out: M.I.C.
Description: (§1) The values were determined by serial dilutions in nutrient agar with 5% chocolated horse blood after incubations for 18 hours at 37° C.

[20] = tested on: E. Coli NCT 10418; experiment: Human bacteria MIC; assay type: cell-based; settings: Escherichia coli; E. Coli NCT 10418; nutrient agar, 5% chocolated horse blood, 18 hours 37° C.; read-out: M.I.C.
Description: as §1

[21] = tested on: Haemophilus influenzae Q1; experiment: Human bacteria MIC; assay type: cell-based
Description: as §1

[22] = tested on: Pasteurella multocida 1633; experiment: Human bacteria MIC; assay type: cell-based
Description: as §1

[23] = tested on: Staph. aureus Russell; experiment: Human bacteria MIC; assay type: cell-based; settings: Staphylococcus aureus; Staph. aureus Russell; nutrient agar, 5% chocolated horse blood, 18 hours 37° C.; read-out: M.I.C.
Description: as §1

[24] = tested on: Strep. faecalis I; experiment: Human bacteria MIC; assay type: cell-based; settings: Enterococcus faecalis, nutrient agar, 5% chocolated horse blood, 18 hours 37° C.
Description: as §1

[25] = tested on: Strep. pyogenes R80/421; experiment: Human bacteria MIC; assay type: cell-based; settings: Streptococcus pyogenes; Strep. pyogenes R80/421; nutrient agar, 5% chocolated horse blood, 18 hours 37° C.; read-out: M.I.C.
Description: as §1

[26] = Serum binding by ultrafiltration; assay type: in vitro ADME; settings: pig, porcine serum, 8 mcg/ml, read-out: % bound to pig serum (converted)
Description: Serum binding was assessed by ultrafiltration of porcine serum containing compounds at 8 mcg/ml, and through an Amicon CF50A ultrafiltration cone. Separation of ultrafiltrate was achieved by centrifugation. Unbound concentrations of compound were measured in the ultrafiltrate by microbiological assay (B. subtilis ATCC 6633) against standards prepared in saline.

[27] = tested on: Haemophilus influenzae Wy21; experiment: Human bacteria MIC; assay type: cell-based; settings: Haemophilus influenzae Wy21; nutrient agar, 5% chocolated horse blood, 18 hours 37° C.; read-out: M.I.C.
Description: as §1

[28] = 144 h, M. suipneumoniae NB12, Friis broth, 0.9% agarose, 6 days 37° C., read-out: M.I.C.
[29] = 144 h, M. gallisepticum S6, Friis broth, 0.9% agarose, 6 days 37° C., read-out: M.I.C.
[30] = M. pneumoniae ATCC 15492, Friis broth, 0.9% agarose, 6 days 37° C., read-out: M.I.C.
[31] = Pasteurella multocida 1633, nutrient agar, 5% chocolated horse blood, 18 hours 37° C., read-out: M.I.C.

SMILES: C/C(=C\C(=O)OCCCC(=NO)c1cccs1)C[C@@H]1OC[C@H](C[C@@H]2O[C@H]2[C@@H](C)[C@H](C)O)[C@@H](O)[C@H]1O [Example 4, 4-Hydroxyimino-4-(2-thienyl)butyl monate A]
- MIC [1, 28]: 0.25 µg/mL (≈ 0.489 µM)
- MIC [2]: 0.5 µg/mL (≈ 0.977 µM)
- MIC [3]: 0.5 µg/mL (≈ 0.977 µM)
- MIC ([4]; 144 h, M. suipneumoniae Str. 11, Friis broth, 0.9% agarose, 6 days 37° C., read-out: M.I.C.): 0.25 µg/mL (≈ 0.489 µM)
- MIC ([5]; J2206/183B): 0.5 µg/mL (≈ 0.977 µM)
- MIC ([6]; M. suipneumoniae PW/C/210, Friis broth, 0.9% agarose, 6 days 37° C., read-out: M.I.C.): 0.25 µg/mL (≈ 0.489 µM)
- MIC ([7]; M. suipneumoniae LABER, Friis broth, 0.9% agarose, 6 days 37° C., read-out: M.I.C.): 0.25 µg/mL (≈ 0.489 µM)
- MIC [8]: 0.5 µg/mL (≈ 0.977 µM)
- MIC [9]: 0.5 µg/mL (≈ 0.977 µM)
- MIC [10]: 0.5 µg/mL (≈ 0.977 µM)
- MIC ([11]; M. hyorhinis ATCC 23234, Friis broth, 0.9% agarose, 6 days 37° C., read-out: M.I.C.): 0.25 µg/mL (≈ 0.489 µM)
- MIC ([12]; M. hyorhinis ATCC 25021, Friis broth, 0.9% agarose, 6 days 37° C., read-out: M.I.C.): 0.25 µg/mL (≈ 0.489 µM)
- MIC ([13]; M. hyosynoviae ATCC 25591, Friis broth, 0.9% agarose, 6 days 37° C., read-out: M.I.C.): 0.25 µg/mL (≈ 0.489 µM)
- MIC [14]: 0.025 µg/mL (≈ 0.0489 µM)
- MIC [15]: 0.05 µg/mL (≈ 0.0977 µM)
- MIC ([16]; M. dispar NCTC 10125, Friis broth, 0.9% agarose, 6 days 37° C., read-out: M.I.C.): 0.1 µg/mL (≈ 0.195 µM)
- MIC [17, 29]: 10 µg/mL (≈ 19.5 µM)
- MIC [18, 30]: 2.5 µg/mL (≈ 4.89 µM)
- MIC [19]: > 100 µg/mL
- MIC [20]: > 100 µg/mL
- MIC ([21]; Haemophilus influenzae Q1, nutrient agar, 5% chocolated horse blood, 18 hours 37° C., read-out: M.I.C.): 0.5 µg/mL (≈ 0.977 µM)
- MIC [22, 31]: 5 µg/mL (≈ 9.77 µM)
- MIC [23]: 2.5 µg/mL (≈ 4.89 µM)
- MIC [24]: 100 µg/mL (≈ 195 µM)
- MIC [25]: 1 µg/mL (≈ 1.95 µM)
- fraction unbound [26]: < 0.039

SMILES: C/C(=C\C(=O)OC1CCC(=NO)CC1)C[C@@H]1OC[C@H](C[C@@H]2O[C@H]2[C@@H](C)[C@H](C)O)[C@@H](O)[C@H]1O (stereo partly drawn) [Example 3, 4-Hydroxyiminocyclohexyl monate A]
- MIC [1, 28]: 0.5 µg/mL (≈ 1.1 µM)
- MIC ([2]; M. suipneumoniae JF 435, Friis broth, 0.9% agarose, 6 days 37° C., read-out: M.I.C.): 0.5 µg/mL (≈ 1.1 µM)
- MIC ([3]; M. suipneumoniae HK (2), Friis broth, 0.9% agarose, 6 days 37° C., read-out: M.I.C.): 0.5 µg/mL (≈ 1.1 µM)
- MIC ([4]; STR.11, 144 h): 0.25 µg/mL (≈ 0.549 µM)
- MIC ([5]; M. suipneumoniae J2206/183b, Friis broth, 0.9% agarose, 6 days 37° C., read-out: M.I.C.): 0.5 µg/mL (≈ 1.1 µM)
- MIC [6]: 0.25 µg/mL (≈ 0.549 µM)
- MIC [7]: 0.25 µg/mL (≈ 0.549 µM)
- MIC ([8]; M. suipneumoniae UCD 1, Friis broth, 0.9% agarose, 6 days 37° C., read-out: M.I.C.): 0.5 µg/mL (≈ 1.1 µM)
- MIC ([9]; M. suipneumoniae ATCC 25095, Friis broth, 0.9% agarose, 6 days 37° C., read-out: M.I.C.): 0.5 µg/mL (≈ 1.1 µM)
- MIC ([10]; M. suipneumoniae NCTC 10110, Friis broth, 0.9% agarose, 6 days 37° C., read-out: M.I.C.): 0.5 µg/mL (≈ 1.1 µM)
- MIC [11]: 0.25 µg/mL (≈ 0.549 µM)
- MIC [12]: 0.25 µg/mL (≈ 0.549 µM)
- MIC [13]: 0.1 µg/mL (≈ 0.22 µM)
- MIC [14]: ≤ 0.01 µg/mL
- MIC [15]: 0.025 µg/mL (≈ 0.0549 µM)
- MIC [16]: 0.1 µg/mL (≈ 0.22 µM)
- MIC ([17]; S6, 144 h): 5 µg/mL (≈ 11 µM)
- MIC [18]: 1 µg/mL (≈ 2.2 µM)
- MIC [19]: > 100 µg/mL
- MIC [20]: > 100 µg/mL
- MIC ([21]; Haemophilus influenzae, Q1, 18 h): 0.25 µg/mL (≈ 0.549 µM)
- MIC ([22]; Pasteurella multocida, 1633, 18 h): 1 µg/mL (≈ 2.2 µM)
- MIC [23]: 5 µg/mL (≈ 11 µM)
- MIC [24]: 25 µg/mL (≈ 54.9 µM)
- MIC [25]: 0.5 µg/mL (≈ 1.1 µM)
- fraction unbound [26]: 0.355

SMILES: C/C(=C\C(=O)OCCCC(=NNC(N)=O)c1ccccc1)C[C@@H]1OC[C@H](C[C@@H]2O[C@H]2[C@@H](C)[C@H](C)O)[C@@H](O)[C@H]1O [Example 2, 4-Phenyl-4-semicarbazonobutyl monate A]
- MIC ([1]; NB12, 144 h): 0.25 µg/mL (≈ 0.456 µM)
- MIC [2]: 0.5 µg/mL (≈ 0.913 µM)
- MIC [3]: 0.5 µg/mL (≈ 0.913 µM)
- MIC ([4]; STR.11, 144 h): 0.25 µg/mL (≈ 0.456 µM)
- MIC ([5]; J2206/183B): 0.5 µg/mL (≈ 0.913 µM)
- MIC [6]: 0.25 µg/mL (≈ 0.456 µM)
- MIC [7]: 0.25 µg/mL (≈ 0.456 µM)
- MIC [8]: 0.5 µg/mL (≈ 0.913 µM)
- MIC [9]: 0.25 µg/mL (≈ 0.456 µM)
- MIC [10]: 0.5 µg/mL (≈ 0.913 µM)
- MIC [11]: 0.25 µg/mL (≈ 0.456 µM)
- MIC [12]: 0.25 µg/mL (≈ 0.456 µM)
- MIC [13]: 0.5 µg/mL (≈ 0.913 µM)
- MIC [14]: 0.05 µg/mL (≈ 0.0913 µM)
- MIC [15]: 0.1 µg/mL (≈ 0.183 µM)
- MIC [16]: 0.1 µg/mL (≈ 0.183 µM)
- MIC [17, 29]: 10 µg/mL (≈ 18.3 µM)
- MIC [18, 30]: 2.5 µg/mL (≈ 4.56 µM)
- MIC [19]: > 100 µg/mL
- MIC [20]: > 100 µg/mL
- MIC [27]: 1 µg/mL (≈ 1.83 µM)
- MIC [22, 31]: 10 µg/mL (≈ 18.3 µM)
- MIC [23]: 10 µg/mL (≈ 18.3 µM)
- MIC [24]: > 100 µg/mL
- MIC [25]: 2.5 µg/mL (≈ 4.56 µM)
- fraction unbound [26]: < 0.159
